What is called inhibition is the drop in the measured response relative to a control, in per cent.

Data on one molecule can be found in PMC5847526, “Inhibition of neuronal FLT3 receptor tyrosine kinase alleviates peripheral neuropathic pain in mice” (Nature Communications, 2018).

The target in assay [1] is T1, TrkA-P75 (Homo sapiens, UniProt P04629).
T1 construct: gene NTRK1
Put plainly: cell-based. Details: PathHunter eXpress functional assay (DiscoverX tkMAX), inhibition of reference ligand response. To be noted: read-out: % Inhibition of reference binding (Table 3).

Assay [2] concerns the target Interleukin-1 receptor-associated kinase 4 (IRAK4) (Homo sapiens, UniProt Q9NWZ3). Put plainly: kinase selectivity panel, inhibition of staurosporine binding at a single concentration ([…]).
For assay [3], the target named is T2, TrkB-P75 (Homo sapiens, UniProt Q16620).
T2 construct: gene NTRK2
Put plainly: cell-based. Details: PathHunter eXpress functional assay (DiscoverX tkMAX), inhibition of reference ligand response. The note with it: read-out: % Inhibition of reference binding (Table 3).

Assay [4] deals with CDK2 (Homo sapiens, UniProt P24941). In words: biochemical. The note with it: read-out: Inhibition of reference binding (Table 4). The arrangement: ExpresS Diversity kinase profile (Eurofins Cerep P10), per cent inhibition.
Assay [5] deals with T3, TRKA (Homo sapiens, UniProt P04629).
T3 construct: gene NTRK1
In words: biochemical. Details: ExpresS Diversity kinase profile (Eurofins Cerep P10), per cent inhibition. The note with it: read-out: Inhibition of reference binding (Table 4).

The target in assay [6] is T4, AurA/Aur2 kinase (Homo sapiens, UniProt O14965).
T4 construct: gene AURKA
Put plainly: biochemical. The arrangement: ExpresS Diversity kinase profile (Eurofins Cerep P10), per cent inhibition. The note with it: read-out: Inhibition of reference binding (Table 4).

Assay [7] addresses T5, p38α kinase (Homo sapiens, UniProt Q16539).
T5 construct: gene MAPK14
Put plainly: biochemical. Details: ExpresS Diversity kinase profile (Eurofins Cerep P10), per cent inhibition. To be noted: read-out: Inhibition of reference binding (Table 4).

Assay [8] addresses Pim2 kinase (Homo sapiens, UniProt Q9P1W9). Put plainly: biochemical. The arrangement: ExpresS Diversity kinase profile (Eurofins Cerep P10), per cent inhibition. The note with it: read-out: Inhibition of reference binding (Table 4).
Assay [9] deals with T6, IRK (Homo sapiens, UniProt P06213).
T6 construct: gene INSR; insulin receptor kinase
T6 sequence (P06213 whole entry): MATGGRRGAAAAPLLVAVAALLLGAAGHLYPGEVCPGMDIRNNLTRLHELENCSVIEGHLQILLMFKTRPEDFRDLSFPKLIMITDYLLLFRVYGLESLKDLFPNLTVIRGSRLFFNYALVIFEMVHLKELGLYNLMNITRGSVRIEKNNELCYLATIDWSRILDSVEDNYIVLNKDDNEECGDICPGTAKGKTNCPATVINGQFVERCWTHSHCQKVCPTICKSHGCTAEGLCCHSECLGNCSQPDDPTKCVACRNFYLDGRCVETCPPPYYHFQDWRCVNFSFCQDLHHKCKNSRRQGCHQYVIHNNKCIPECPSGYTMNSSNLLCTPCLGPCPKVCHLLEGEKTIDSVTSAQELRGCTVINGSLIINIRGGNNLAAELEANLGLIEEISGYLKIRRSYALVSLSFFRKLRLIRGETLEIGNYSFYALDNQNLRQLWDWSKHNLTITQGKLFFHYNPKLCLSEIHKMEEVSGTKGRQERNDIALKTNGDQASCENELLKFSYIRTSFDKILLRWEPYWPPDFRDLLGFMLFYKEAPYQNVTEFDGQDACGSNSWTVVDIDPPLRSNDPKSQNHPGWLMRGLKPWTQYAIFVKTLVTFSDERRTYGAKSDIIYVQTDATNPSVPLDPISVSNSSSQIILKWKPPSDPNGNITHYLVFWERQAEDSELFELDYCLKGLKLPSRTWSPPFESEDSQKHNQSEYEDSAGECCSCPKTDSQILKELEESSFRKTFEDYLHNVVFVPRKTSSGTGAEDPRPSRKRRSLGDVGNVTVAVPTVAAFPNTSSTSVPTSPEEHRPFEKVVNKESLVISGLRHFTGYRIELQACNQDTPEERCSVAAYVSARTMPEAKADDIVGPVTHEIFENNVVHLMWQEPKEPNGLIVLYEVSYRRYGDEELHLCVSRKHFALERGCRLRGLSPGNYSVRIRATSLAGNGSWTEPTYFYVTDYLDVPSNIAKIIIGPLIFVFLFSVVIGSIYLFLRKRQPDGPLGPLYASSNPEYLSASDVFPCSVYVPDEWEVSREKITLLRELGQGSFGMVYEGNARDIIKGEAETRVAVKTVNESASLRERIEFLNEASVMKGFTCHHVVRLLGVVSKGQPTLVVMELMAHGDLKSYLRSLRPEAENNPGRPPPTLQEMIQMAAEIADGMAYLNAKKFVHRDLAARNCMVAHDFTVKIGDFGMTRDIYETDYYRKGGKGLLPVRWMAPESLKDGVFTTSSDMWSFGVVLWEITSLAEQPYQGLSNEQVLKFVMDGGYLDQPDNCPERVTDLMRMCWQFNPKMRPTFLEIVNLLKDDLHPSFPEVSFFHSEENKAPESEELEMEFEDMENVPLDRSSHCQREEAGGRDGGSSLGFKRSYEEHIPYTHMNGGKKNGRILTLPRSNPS
Put plainly: biochemical. To be noted: read-out: Inhibition of reference binding (Table 4). The arrangement: ExpresS Diversity kinase profile (Eurofins Cerep P10), per cent inhibition.

Assay [10] has as its target T7, PDGFRα (Homo sapiens, UniProt P16234).
T7 construct: gene PDGFRA
In words: biochemical. Details: ExpresS Diversity kinase profile (Eurofins Cerep P10), per cent inhibition. To be noted: read-out: Inhibition of reference binding (Table 4).

Assay [11] concerns the target T8, PKA (Homo sapiens, UniProt P17612).
T8 construct: gene PRKACA
In words: biochemical. The arrangement: ExpresS Diversity kinase profile (Eurofins Cerep P10), per cent inhibition. The note with it: read-out: Inhibition of reference binding (Table 4).

For assay [12], the target named is PAK4 (Homo sapiens, UniProt O96013). Put plainly: biochemical. Details: ExpresS Diversity kinase profile (Eurofins Cerep P10), per cent inhibition. To be noted: read-out: Inhibition of reference binding (Table 4).
Sequence of PAK4 (O96013 whole entry): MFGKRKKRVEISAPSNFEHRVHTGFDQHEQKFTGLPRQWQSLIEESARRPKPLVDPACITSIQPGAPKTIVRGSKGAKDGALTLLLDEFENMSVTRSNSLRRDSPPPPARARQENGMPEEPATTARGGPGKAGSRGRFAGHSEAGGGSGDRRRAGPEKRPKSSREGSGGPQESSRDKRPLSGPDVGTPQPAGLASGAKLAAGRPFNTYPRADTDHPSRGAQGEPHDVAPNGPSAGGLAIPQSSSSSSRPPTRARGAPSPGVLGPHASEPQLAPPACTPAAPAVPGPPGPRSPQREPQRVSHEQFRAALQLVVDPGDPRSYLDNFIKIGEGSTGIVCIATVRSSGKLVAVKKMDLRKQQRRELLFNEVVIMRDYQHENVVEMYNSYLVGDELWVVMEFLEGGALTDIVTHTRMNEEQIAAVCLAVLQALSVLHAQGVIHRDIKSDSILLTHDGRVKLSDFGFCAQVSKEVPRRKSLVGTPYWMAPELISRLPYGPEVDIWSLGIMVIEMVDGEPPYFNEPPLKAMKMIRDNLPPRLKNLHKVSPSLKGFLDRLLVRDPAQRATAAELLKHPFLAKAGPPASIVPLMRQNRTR
In assay [13] the target is EphA3 kinase (Homo sapiens, UniProt P29320). In words: biochemical. The arrangement: ExpresS Diversity kinase profile (Eurofins Cerep P10), per cent inhibition. The note with it: read-out: Inhibition of reference binding (Table 4).
Sequence of EphA3 kinase (P29320 whole entry): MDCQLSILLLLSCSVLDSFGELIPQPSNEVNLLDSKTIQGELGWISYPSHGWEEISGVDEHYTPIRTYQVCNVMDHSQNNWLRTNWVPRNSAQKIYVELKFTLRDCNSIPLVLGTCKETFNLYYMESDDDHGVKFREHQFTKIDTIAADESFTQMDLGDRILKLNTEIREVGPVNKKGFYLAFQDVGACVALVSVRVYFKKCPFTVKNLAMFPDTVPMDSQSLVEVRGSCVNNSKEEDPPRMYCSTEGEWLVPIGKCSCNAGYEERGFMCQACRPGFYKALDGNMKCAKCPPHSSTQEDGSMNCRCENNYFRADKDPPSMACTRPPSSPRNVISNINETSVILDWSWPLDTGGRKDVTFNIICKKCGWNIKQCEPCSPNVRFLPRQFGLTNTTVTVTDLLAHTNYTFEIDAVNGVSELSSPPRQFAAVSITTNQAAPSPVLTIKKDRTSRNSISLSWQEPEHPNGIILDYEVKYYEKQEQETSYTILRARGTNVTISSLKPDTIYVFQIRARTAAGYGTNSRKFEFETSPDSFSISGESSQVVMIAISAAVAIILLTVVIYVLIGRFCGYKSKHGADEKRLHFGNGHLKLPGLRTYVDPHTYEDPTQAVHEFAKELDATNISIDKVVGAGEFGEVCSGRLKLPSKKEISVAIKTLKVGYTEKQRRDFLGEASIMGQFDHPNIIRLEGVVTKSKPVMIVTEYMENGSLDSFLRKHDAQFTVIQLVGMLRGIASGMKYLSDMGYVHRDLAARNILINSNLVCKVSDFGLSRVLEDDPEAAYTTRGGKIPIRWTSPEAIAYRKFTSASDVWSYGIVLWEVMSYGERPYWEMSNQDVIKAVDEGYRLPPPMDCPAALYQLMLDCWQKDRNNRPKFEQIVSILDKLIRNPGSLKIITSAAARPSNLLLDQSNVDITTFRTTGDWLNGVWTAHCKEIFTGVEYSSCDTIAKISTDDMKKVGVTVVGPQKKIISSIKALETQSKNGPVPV
Assay [14] deals with PRLR-JAK2 (Homo sapiens, UniProt P16471). Put plainly: cell-based. The arrangement: PathHunter eXpress functional assay (DiscoverX tkMAX), inhibition of reference ligand response. The note with it: read-out: % Inhibition of reference binding (Table 3).

T5 sequence (Q16539 whole entry): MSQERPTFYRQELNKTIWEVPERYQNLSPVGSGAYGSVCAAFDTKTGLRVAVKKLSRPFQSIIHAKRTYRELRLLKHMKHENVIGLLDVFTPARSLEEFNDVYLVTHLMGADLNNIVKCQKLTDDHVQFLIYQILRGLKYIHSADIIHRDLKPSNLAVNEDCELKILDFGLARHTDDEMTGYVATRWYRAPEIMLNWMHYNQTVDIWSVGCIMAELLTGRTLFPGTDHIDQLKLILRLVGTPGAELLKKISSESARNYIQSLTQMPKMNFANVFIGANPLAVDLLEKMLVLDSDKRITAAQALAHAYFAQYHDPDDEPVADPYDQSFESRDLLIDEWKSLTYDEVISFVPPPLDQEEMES
Sequence of Pim2 kinase (Q9P1W9 whole entry): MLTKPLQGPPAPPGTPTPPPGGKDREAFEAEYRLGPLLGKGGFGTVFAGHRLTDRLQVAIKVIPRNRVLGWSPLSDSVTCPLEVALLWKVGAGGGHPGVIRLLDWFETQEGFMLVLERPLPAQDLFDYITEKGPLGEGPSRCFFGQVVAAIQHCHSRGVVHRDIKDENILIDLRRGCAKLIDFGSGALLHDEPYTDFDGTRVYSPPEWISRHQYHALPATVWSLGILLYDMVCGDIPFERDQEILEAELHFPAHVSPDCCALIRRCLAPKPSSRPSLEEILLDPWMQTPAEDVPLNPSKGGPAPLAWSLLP
T7 sequence (P16234 whole entry): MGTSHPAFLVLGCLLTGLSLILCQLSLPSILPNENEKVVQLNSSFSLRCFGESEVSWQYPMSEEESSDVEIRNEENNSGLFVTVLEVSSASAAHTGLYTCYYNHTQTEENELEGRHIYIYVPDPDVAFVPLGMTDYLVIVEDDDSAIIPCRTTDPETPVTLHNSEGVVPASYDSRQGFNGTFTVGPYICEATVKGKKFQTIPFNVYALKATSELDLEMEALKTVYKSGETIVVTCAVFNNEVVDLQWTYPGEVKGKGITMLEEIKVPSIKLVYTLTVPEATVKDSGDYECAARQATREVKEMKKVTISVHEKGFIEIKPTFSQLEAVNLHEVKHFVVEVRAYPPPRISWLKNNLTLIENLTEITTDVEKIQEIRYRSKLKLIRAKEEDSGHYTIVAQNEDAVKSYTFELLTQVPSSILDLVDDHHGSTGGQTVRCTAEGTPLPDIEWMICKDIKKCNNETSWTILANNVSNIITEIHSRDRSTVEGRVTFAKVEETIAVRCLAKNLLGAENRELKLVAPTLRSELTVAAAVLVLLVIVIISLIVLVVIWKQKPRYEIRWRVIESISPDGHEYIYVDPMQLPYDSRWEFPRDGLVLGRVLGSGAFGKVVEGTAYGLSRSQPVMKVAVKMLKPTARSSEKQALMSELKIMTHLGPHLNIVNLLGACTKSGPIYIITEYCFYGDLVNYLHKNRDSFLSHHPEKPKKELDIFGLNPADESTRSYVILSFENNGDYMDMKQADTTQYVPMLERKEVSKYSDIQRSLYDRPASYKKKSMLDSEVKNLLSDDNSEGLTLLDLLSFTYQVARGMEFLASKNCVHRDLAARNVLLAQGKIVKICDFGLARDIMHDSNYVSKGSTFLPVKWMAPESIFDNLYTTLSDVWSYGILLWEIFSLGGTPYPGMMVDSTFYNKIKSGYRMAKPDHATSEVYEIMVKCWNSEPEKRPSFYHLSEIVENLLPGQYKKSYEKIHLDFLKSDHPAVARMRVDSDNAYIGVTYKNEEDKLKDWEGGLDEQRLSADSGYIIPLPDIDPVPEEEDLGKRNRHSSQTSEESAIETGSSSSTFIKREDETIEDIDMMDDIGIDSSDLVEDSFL

As for `O=C(Nc1cc(Cl)ccc1O)c1cccc(S(=O)(=O)N2CCCCC2)c1` [compound 66, BDT001], the inhibition at 10 µM is 13.7% in [1]; 64% in assay [2]; -1.3% in [3]; 33% in assay [4]; 0% in assay [5]; -5% in assay [6]. The inhibition at 10 µM in [7] is 23%; in assay [8] it was 19%; in assay [9], -4%; in [10], 40%; in assay [11] it was 7%; in assay [12] it was 6%. The inhibition at 10 µM amounted to 0% in assay [13] and 1.9% in assay [14].
